“And” between values parts separate entries of the source, which are not always exact repeats. Identical values can stand only once. Toxic doses and inconclusive results are not listed.

We go through 26 molecules from PubChem BioAssay AID330 (DTP/NCI, 2004).

The test deals with P388 leukemia ip, CD2F1 mice, survival T/C. Description: NCI In Vivo Anticancer Drug Screen. Data for tumor model P388 Leukemia (intraperitoneal) in CD2F1 (CDF1) mice. Conditions: endpoint: median survival time, higher = longer survival. Summed up: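 Mice carrying the transplanted tumor received test compound or vehicle. Survival was recorded in each group, and the value is the treated-group measurement divided by that of the vehicle-treated control group.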

The mark [1] stands for this setting: dose: 50.0 mg/kg/injection, schedule: Q01DX005 (ip), vehicle: Klucel (hydroxypropylcellulose) (HPC).
[2] abbreviates: dose: 100.0 mg/kg/injection, schedule: Q01DX005 (ip), vehicle: Klucel (hydroxypropylcellulose) (HPC).
The mark [3] stands for this setting: dose: 50.0 mg/kg/injection, schedule: Q01DX005 (ip), vehicle: saline with Tween-80.
Where [4] appears, read: dose: 100.0 mg/kg/injection, schedule: Q01DX005 (ip), vehicle: saline with Tween-80.
The mark [5] stands for this setting: dose: 200.0 mg/kg/injection, schedule: Q01DX005 (ip), vehicle: saline with Tween-80.
Where [6] appears, read: dose: 50.0 mg/kg/injection, schedule: Q01DX009 (ip), vehicle: saline with Tween-80.
Where [7] appears, read: dose: 100.0 mg/kg/injection, schedule: Q01DX009 (ip), vehicle: saline with Tween-80.
The mark [8] stands for this setting: dose: 200.0 mg/kg/injection, schedule: Q01DX009 (ip), vehicle: saline with Tween-80.
Where [9] appears, read: dose: 60.0 mg/kg/injection, schedule: Q01DX005 (ip), vehicle: saline with Tween-80.
[10] abbreviates: dose: 120.0 mg/kg/injection, schedule: Q01DX005 (ip), vehicle: saline with Tween-80.
[11] abbreviates: dose: 240.0 mg/kg/injection, schedule: Q01DX005 (ip), vehicle: saline with Tween-80.
The mark [12] stands for this setting: dose: 50.0 mg/kg/injection, schedule: Q01DX005 (ip), vehicle: saline.
Where [13] appears, read: dose: 100.0 mg/kg/injection, schedule: Q01DX005 (ip), vehicle: saline.
Where [14] appears, read: dose: 200.0 mg/kg/injection, schedule: Q01DX005 (ip), vehicle: saline.
[15] abbreviates: dose: 12.5 mg/kg/injection, schedule: Q01DX009 (ip), vehicle: saline with Tween-80.
Setting [16] is: dose: 25.0 mg/kg/injection, schedule: Q01DX009 (ip), vehicle: saline with Tween-80.
The mark [17] stands for this setting: dose: 50.0 mg/kg/injection, schedule: Q01DX009 (ip), vehicle: Klucel (hydroxypropylcellulose) (HPC).
Where [18] appears, read: dose: 100.0 mg/kg/injection, schedule: Q01DX009 (ip), vehicle: Klucel (hydroxypropylcellulose) (HPC).
Where [19] appears, read: dose: 200.0 mg/kg/injection, schedule: Q01DX009 (ip), vehicle: Klucel (hydroxypropylcellulose) (HPC).

For the molecule `COc1ccc(Cc2cc3c(cc2OCC(=O)Nc2nccs2)OCO3)cc1`, the T/C was 88 % of control under setting [1]; 97 % of control under setting [2]; 97 % of control (dose: 200.0 mg/kg/injection, schedule: Q01DX005 (ip), vehicle: Klucel (hydroxypropylcellulose) (HPC)).
With `NC(=S)N/N=C/c1c(O)c2cc(Cl)ccc2[nH]c1=O`, the T/C reads like this: under setting [3], 106 % of control; under setting [4], 112 % of control; under setting [5], 112 % of control.
As to `Cc1cc(O)c(NCCN(C)C)c2c(=O)c3ccccc3sc12`, the T/C runs as follows: under setting [6], 100 % of control; under setting [7], 101 % of control; under setting [8], 100 % of control.
For `O=[n+]1c2c(n([O-])c3ccccc31)CCCCCC2`, the T/C is 108 % of control under setting [6], 99 % of control under setting [7] and 100 % of control under setting [8].
For `O=c1[nH]nc(-c2ccccc2)c2c1[nH]c1ccccc12`, the T/C is 93 % of control under setting [9], 96 % of control under setting [10] and 86 % of control under setting [11].
For the molecule `CC1=NN(C(=O)CC(=O)Nc2ccc(C(=O)O)cc2)C(=O)C1N=Nc1ccccc1` (configuration not stated), the T/C is 105 % of control under setting [12], 102 % of control under setting [13] and 108 % of control under setting [14].
Regarding `C=C1CC2(CCS(=O)(=O)c3ccccc32)OC1=O` (configuration not stated), the T/C reads like this: (dose: 12.5 mg/kg/injection, schedule: Q04DX002 (ip), vehicle: saline with Tween-80) 105 % of control; (dose: 25.0 mg/kg/injection, schedule: Q04DX002 (ip), vehicle: saline with Tween-80) 109 % of control; (dose: 50.0 mg/kg/injection, schedule: Q04DX002 (ip), vehicle: saline with Tween-80) 116 % of control.
On to `NC(c1ccccc1)c1cccs1` (configuration not stated), for which the T/C under setting [1] was 100 % of control and the T/C under setting [2] is 105 % of control.
Consider `NC1C(=O)OC(C(O)CO)C1O` (configuration not stated), for which the T/C is, setting by setting: (dose: 12.5 mg/kg/injection, schedule: Q01DX009 (ip), vehicle: water) 100 % of control; (dose: 25.0 mg/kg/injection, schedule: Q01DX009 (ip), vehicle: water) 100 % of control; (dose: 50.0 mg/kg/injection, schedule: Q01DX009 (ip), vehicle: water) 104 % of control; (dose: 100.0 mg/kg/injection, schedule: Q01DX009 (ip), vehicle: water) 98 % of control; (dose: 200.0 mg/kg/injection, schedule: Q01DX009 (ip), vehicle: water) 97 % of control.
In the case of `C1=C[N]2c3c4c(ccc3=C1)=CC=C[N]4[Ga]2[c]1ccccc1`, the T/C was 103 % of control (dose: 6.25 mg/kg/injection, schedule: Q01DX009 (ip), vehicle: Klucel (hydroxypropylcellulose) (HPC)); 106 % of control (dose: 12.5 mg/kg/injection, schedule: Q01DX009 (ip), vehicle: Klucel (hydroxypropylcellulose) (HPC)); 118 % of control (dose: 25.0 mg/kg/injection, schedule: Q01DX009 (ip), vehicle: Klucel (hydroxypropylcellulose) (HPC)).
For `Nc1nc[nH]c(=O)c1NC(=O)c1cccc([N+](=O)[O-])c1`, the T/C by setting is: under setting [15], 101 % of control; under setting [16], 100 % of control; under setting [6], 96 % of control; under setting [7], 99 % of control.
For the molecule `O=C1NC2(CCCCC2)C(=O)N1CCCN1C(=O)NC2(CCCCC2)C1=O`, the T/C is 107 % of control under setting [9], 102 % of control under setting [10] and 101 % of control under setting [11].
Consider `COC(=O)C1=NC(=N)N=C(C(=O)OC)C12C(=O)Cc1ccccc12` (configuration not stated), for which the T/C was 103 % of control under setting [9] and 100 % of control under setting [10].
Regarding `O=C/C=C/N=c1ccn(O)cc1`, the T/C by setting is: (dose: 60.0 mg/kg/injection, schedule: Q01DX005 (ip), vehicle: saline) 105 % of control; (dose: 120.0 mg/kg/injection, schedule: Q01DX005 (ip), vehicle: saline) 100 % of control; (dose: 240.0 mg/kg/injection, schedule: Q01DX005 (ip), vehicle: saline) 109 % of control.
Turning to `c1ccc2[nH]c(-c3nc4ccccc4s3)cc2c1`, the T/C is, setting by setting: under setting [17], 106 % of control; under setting [18], 108 % of control; under setting [19], 98 % of control.
Take `O=C1c2ccccc2C(=O)N1N1C(=O)c2ccccc2C1=O`: the T/C by setting is: (dose: 100.0 mg/kg/injection, schedule: Q04DX003 (ip), vehicle: saline with Tween-80) 100 % of control; (dose: 200.0 mg/kg/injection, schedule: Q04DX003 (ip), vehicle: saline with Tween-80) 100 % of control; (dose: 400.0 mg/kg/injection, schedule: Q04DX003 (ip), vehicle: saline with Tween-80) 100 % of control.
For the molecule `COc1ccc2c(c1O)C1=CC=CCC13CCN(C)C3C2` (configuration not stated), the T/C runs as follows: (dose: 100.0 mg/kg/injection, schedule: Q04DX002 (ip), vehicle: saline with Tween-80) 103 % of control; (dose: 200.0 mg/kg/injection, schedule: Q04DX002 (ip), vehicle: saline with Tween-80) 105 % of control; (dose: 400.0 mg/kg/injection, schedule: Q04DX002 (ip), vehicle: saline with Tween-80) 108 % of control.
Take `CCOC(=O)Nc1cc2c(c(N)n1)N=C(c1ccc3ccccc3c1)CN2`: the T/C by setting is: (dose: 5.0 mg/kg/injection, schedule: Q01DX005 (ip), vehicle: saline with Tween-80) 153 % of control; (dose: 7.5 mg/kg/injection, schedule: Q01DX005 (ip), vehicle: saline with Tween-80) 165 % of control; (dose: 10.0 mg/kg/injection, schedule: Q01DX005 (ip), vehicle: saline with Tween-80) 166 % of control and 168 % of control.
As for `OCCN(CCO)N(CCO)CCO`, the T/C is 96 % of control under setting [12], 97 % of control under setting [13] and 97 % of control under setting [14].
As for `COc1ccc(C[n+]2ccccc2C#N)cc1OC`, the T/C by setting is: under setting [1], 103 % of control; under setting [2], 107 % of control.
For `CCC(C)(OC(C)=O)C(=O)OC1C(=O)OC2CC3C(C)=CC(O)C(O)C3(C)C3C4(O)OCC23C1C(C)C4O` (configuration not stated), the T/C is, setting by setting: (dose: 0.25 mg/kg/injection, schedule: Q01DX009 (ip), vehicle: saline + alcohol) 103 % of control; (dose: 0.5 mg/kg/injection, schedule: Q01DX009 (ip), vehicle: saline + alcohol) 96 % of control; (dose: 1.0 mg/kg/injection, schedule: Q01DX009 (ip), vehicle: saline + alcohol) 96 % of control; (dose: 2.0 mg/kg/injection, schedule: Q01DX009 (ip), vehicle: saline + alcohol) 96 % of control; (dose: 4.0 mg/kg/injection, schedule: Q01DX009 (ip), vehicle: saline + alcohol) 99 % of control.
Consider `COc1ccc(NC(=O)C2C(=O)C(=O)N(c3ccc(OC)cc3OC)C2=O)c(OC)c1` (configuration not stated), for which the T/C reads like this: under setting [17], 98 % of control; under setting [18], 100 % of control; under setting [19], 98 % of control.
As for `O=C1CCC(c2n[nH]c(=S)o2)N1Cc1ccccc1` (configuration not stated), the T/C is 98 % of control under setting [9], 100 % of control under setting [10] and 103 % of control under setting [11].
For `O=P(c1ccccc1)(c1ccccc1)c1ccccc1.[CH3][Sn]([Cl])([Cl])[c]1ccccc1`, the T/C reads like this: (dose: 12.5 mg/kg/injection, schedule: Q04DX003 (ip), vehicle: saline) 100 % of control and 118 % of control; (dose: 25.0 mg/kg/injection, schedule: Q04DX003 (ip), vehicle: saline) 100 % of control and 104 % of control; (dose: 50.0 mg/kg/injection, schedule: Q04DX003 (ip), vehicle: saline) 100 % of control and 101 % of control; (dose: 100.0 mg/kg/injection, schedule: Q04DX003 (ip), vehicle: saline) 100 % of control and 110 % of control.
Regarding `O=C(Nc1nnc(-c2ccccc2)s1)c1cc(=O)c2cc([N+](=O)[O-])ccc2o1`, the T/C is 100 % of control under setting [3], 102 % of control under setting [4] and 96 % of control under setting [5].
`CC(C)(C)C1CCC(NC(=O)c2ccccc2)CC1` (configuration not stated): the T/C (dose: 3.13 mg/kg/injection, schedule: Q01DX009 (ip), vehicle: saline with Tween-80) is 99 % of control; the T/C (dose: 6.25 mg/kg/injection, schedule: Q01DX009 (ip), vehicle: saline with Tween-80) was 99 % of control; the T/C under setting [15] was 93 % of control; the T/C under setting [16] was 99 % of control.
